Source: US7179813B2, “Bicyclic indolyl derivatives and methods for their use as serotonergic agents” (Wyeth, priority 2003, dated 2007)
Structures can show the parent of a compound that is named as a salt. Where two headings read alike, the source gives them in different places.

Experiments:
human 5-HT1A receptor [1] = molecular target: T1, human 5-HT1A receptor (Homo sapiens, UniProt P08908); test: Antagonism of 8-OH-DPAT inhibition of forskolin-stimulated cyclic-AMP turnover in transfected CHO cells; type: cell-based; settings: CHO cells with human 5-HT1A receptor, read-out: cAMP IC50
T1 construct: expressed in transfected cells; host or cells: CHO cells (stably transfected)
T1 sequence (P08908 1-422): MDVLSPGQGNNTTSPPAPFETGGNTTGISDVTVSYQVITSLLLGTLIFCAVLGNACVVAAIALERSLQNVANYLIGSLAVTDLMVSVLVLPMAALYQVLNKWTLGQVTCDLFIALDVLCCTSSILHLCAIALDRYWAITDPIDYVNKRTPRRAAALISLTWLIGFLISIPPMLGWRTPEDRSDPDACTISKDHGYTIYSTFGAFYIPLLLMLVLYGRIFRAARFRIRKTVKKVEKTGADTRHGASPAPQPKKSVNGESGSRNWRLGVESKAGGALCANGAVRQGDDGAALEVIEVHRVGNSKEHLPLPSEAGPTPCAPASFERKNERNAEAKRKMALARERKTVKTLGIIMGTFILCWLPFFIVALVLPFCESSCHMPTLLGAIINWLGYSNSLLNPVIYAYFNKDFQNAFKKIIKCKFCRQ

human 5-HT1A receptor [2] = molecular target: T1, human 5-HT1A receptor; test: Serotonin 5-HT1A binding, displacement of [3H]8-OH-DPAT; settings: [3H]8-OH-DPAT displacement, CHO cells stably transfected with human 5-HT1A receptor
From the text: Affinity for the serotonin 5-HT1A receptor was established by assaying the test compound's ability to displace [^3H]8-OH-DPAT from its binding site on the receptor complex in CHO cells stably transfected with the human 5-HT1A receptor following the procedure described by Dunlop et al., J. PharmacoL ToxicoL Methods 1998, 40, 47.

[3] = animal models; cited from earlier work
[4] = in vivo; cited from earlier work
marmosets = settings: cited from earlier work
[5] = cited from earlier work
DU-145 = settings: DU-145, in vitro; cited from earlier work
PC3 cell line = settings: athymic nude mice; cited from earlier work
PC3 = settings: PC3, in vitro; cited from earlier work
LNCaP = settings: in vitro; cited from earlier work

`C[C@H](CN(C(=O)[C@H]1CC2CCC1CC2)c1ccccn1)N1CCN(c2cccc3[nH]ccc23)CC1` (as salt: hydrochloride) [Example 1, (S)-N-{(2R)-2-[4-(1H-Indol-4-yl)piperazin-1-yl]propyl}-N-pyridin-2-yl-bicyclo[2.2.2]octane-2-carboxamide] gave a melting point of 180 to 182 °C.
`C[C@H](CN(C(=O)C1C2CCC1CC2)c1ccccn1)N1CCN(c2cccc3[nH]ccc23)CC1` (stereo partly drawn) (as salt: hydrochloride) [Example 3, N-{(2R)-2-[4-(1H-Indol-4-yl)piperazin-1-yl]propyl}-N-pyridin-2-yl-bicyclo[2.2.1]heptane-7-carboxamide] showed a melting point of 176 to 179 °C.
Molecule `C[C@H](CN(C(=O)C1(C)C2CCC1CC2)c1ccccn1)N1CCN(c2cccc3[nH]ccc23)CC1` (stereo partly drawn) (as salt: hydrochloride) [Example 4, N-{(2R)-2-[4-(1H-indol-4-yl)piperazin-1-yl]propyl}-7-methyl-N-pyridin-2-yl-bicyclo[2.2.1]heptane-7-carboxamide] has a melting point of 236 to 238 °C.
`C[C@H](CN(C(=O)[C@H]1CC2CCC1CC2)c1ccccn1)N1CCN(c2cccc3[nH]ccc23)CC1` [Example 1, (S)-N-{(2R)-2-[4-(1H-Indol-4-yl)piperazin-1-yl]propyl}-N-pyridin-2-yl-bicyclo[2.2.2]octane-2-carboxamide] gave an IC50 (human 5-HT1A receptor [1]) of 4.1 nM and a Ki (human 5-HT1A receptor [2]) of 0.68 nM.
Work on `C[C@H](CN(C(=O)[C@@H]1CC2CCC1CC2)c1ccccn1)N1CCN(c2cccc3[nH]ccc23)CC1` [Example 2, (R)-N-[(2R)-2-[4-(1H-Indol-4-yl)-1-piperazinyl]propyl]-N-2-pyridin-2-yl-bicyclo[2.2.2]octane-2-carboxamide] yielded an IC50 (human 5-HT1A receptor [1]) of 2.2 nM and a Ki (human 5-HT1A receptor [2]) of 0.69 nM.
For `C[C@H](CN(C(=O)C1C2CCC1CC2)c1ccccn1)N1CCN(c2cccc3[nH]ccc23)CC1` (stereo partly drawn) [Example 3, N-{(2R)-2-[4-(1H-Indol-4-yl)piperazin-1-yl]propyl}-N-pyridin-2-yl-bicyclo[2.2.1]heptane-7-carboxamide], the IC50 (human 5-HT1A receptor [1]) was 74.5 nM and the Ki (human 5-HT1A receptor [2]) was 0.98 nM.
Work on `C[C@H](CN(C(=O)C1(C)C2CCC1CC2)c1ccccn1)N1CCN(c2cccc3[nH]ccc23)CC1` (stereo partly drawn) [Example 4, N-{(2R)-2-[4-(1H-indol-4-yl)piperazin-1-yl]propyl}-7-methyl-N-pyridin-2-yl-bicyclo[2.2.1]heptane-7-carboxamide] yielded an IC50 (human 5-HT1A receptor [1]) of 6.7 nM and a Ki (human 5-HT1A receptor [2]) of 0.45 nM.
In the case of `OC(CNC1CCCCC1)COc1cccc2[nH]ccc12` (centres unmarked) [LY206130], the “anxiogenic behaviors induced by nicotine withdrawal” value (“anxiogenic behaviors induced” for short) [3] is listed as “blocked”.
In the case of `COc1ccccc1N1CCN(CC[C@](C)(C(=O)C2CCCCC2)c2ccccc2)CC1` [LY 426965], the “anxiogenic behaviors induced” value [3] is given as “blocked”.
In the case of `COc1ccccc1N1CCN(CCCCN2C(=O)c3ccccc3C2=O)CC1` [NAN-190], the “anxiogenic behaviors induced” value [3] is listed as “blocked”.
For `COc1ccccc1N1CCN(CC(C(=O)NC(C)(C)C)c2ccccc2)CC1` (centres unmarked) [WAY-100135], the “impairment of spatial learning caused by intrahippocampal scopolamine” value [4] is listed as “prevented the impairment of spatial learning”.
In the case of `COc1ccccc1N1CCN(CCN(C(=O)C2CCCCC2)c2ccccn2)CC1` [WAY-100635], the “cognitive deficits induced by fomix lesions” value (marmosets) is given as “reversed the cognitive deficits” and the “anxiogenic behaviors induced” value [3] is given as “blocked”.
In the case of `CC(C)NCC(O)COc1cccc2[nH]ccc12` (centres unmarked) [pindolol], the “median time needed to achieve a sustained antidepressant response” value ([5]; co-administered with the SSRI fluoxetine) is listed as “significantly reduced the median time” and the “median time needed to achieve a sustained antidepressant response” value ([5]; co-administered with the SSRI paroxetine) is listed as “significantly reduced the median time”.
For pindobind, the antineoplastic activity (DU-145) is given as “antineoplastic activity”, the “growth of the PC3 cell line in vivo” value (PC3 cell line) is given as “inhibited the growth” and the antineoplastic activity (PC3) is given as “antineoplastic activity”. The antineoplastic activity (LNCaP) was “antineoplastic activity”.
